Reference: patent publication US10358434B2, “2-(3-pyridinyl)-1H-benzimidazole derivative compound and medicament containing same” (NIHON MEDI-PHYSICS CO., LTD., priority 2014, dated 2019)

Key:
[1] = system: human adrenal gland section expressing aldosterone-producing adenoma; test: In vitro autoradiography using human adrenal adenoma; type: binding; settings: section of FIG. 17(b); for B2 (PSL value, aldosterone-producing adenoma): site 71b; for B1 (PSL value, normal adrenal cortex): site 72b
Method in brief: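 Frozen 7-μm sections of human adrenal bearing aldosterone-producing adenoma were immersed 10 min in radioligand (5-33 kBq/mL) in PBS with 1% fatty-acid-free BSA, washed, then exposed to imaging plates for 16-20 h. Equal-area ROI PSL in adenoma (B2) versus normal cortex (B1) gave B2/B1, corrected for nuclide half-life, added activity and exposure time.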

[2] = In vivo kinetics experiment (radioactivity distribution); parameters: species or system Wistar male rat
Method in brief: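 Male Wistar rats (9 weeks) under isoflurane received approximately 1 to 3.7 MBq radiotracer in saline with 1 w/v % ascorbic acid by tail-vein injection. At 10, 30 and 60 min, rats were exsanguinated; blood, organs and remaining body weighed and counted, giving % ID/g and adrenal-to-tissue ratios.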

[3] = Plasma stability evaluation (TLC analysis); type: in vitro ADME; settings: 37° C., 60 minutes, TLC analysis
Method in brief: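 Radiolabelled compounds were incubated in heparin-treated pooled normal human plasma at 37° C for 60 minutes. After methanol deproteinization and centrifugation, stability was assessed by TLC under the conditions used for each compound's synthesis.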

[4] = 10 min after administration, rat i.v., mean ± SD
[5] = 30 min after administration, rat i.v., mean ± SD
[6] = 60 min after administration, rat i.v., mean ± SD
[7] = rat, caudal vein, 10 min after administration
[8] = rat, caudal vein, 30 min after administration
[9] = rat, caudal vein, 60 min after administration

CCn1c(-c2cncc(Cn3ccnc3)c2)nc2ccc([123I])cc21 [[^123I] 608, 2-[5-{(1H-imidazol-1-yl)methyl}pyridin-3-yl]-1-ethyl-6-[^123I]iodo-1H-benzo[d]imidazole]
B2/B1 accumulation ratio [1]: 1.08 | B2 (PSL value, aldosterone-producing adenoma) [1]: 3580 | B1 (PSL value, normal adrenal cortex) [1]: 3303 | Adrenal gland/blood ratio of radioactivity accumulation [2, 4]: 75.29 ± 24.87 | Adrenal gland/fat ratio of radioactivity accumulation [2, 4]: 90.02 ± 14.66 | Adrenal gland/kidney ratio of radioactivity accumulation [2, 4]: 4.95 ± 1.61 | Adrenal gland/liver ratio of radioactivity accumulation [2, 4]: 2.86 ± 0.42 | Adrenal gland/muscle ratio of radioactivity accumulation [2, 4]: 57.35 ± 15.85 | Adrenal gland/small intestine ratio of radioactivity accumulation [2, 4]: 5.04 ± 0.35 | Radioactivity distribution Adrenal gland [2, 4]: 8.76 ± 2.34 % ID/g | Radioactivity distribution Bladder (including urine) [2, 4]: 0.82 ± 0.43 % ID/g | Radioactivity distribution Blood [2, 4]: 0.12 ± 0.01 % ID/g | Radioactivity distribution Fat [2, 4]: 0.10 ± 0.01 % ID/g | Radioactivity distribution Femur [2, 4]: 0.82 ± 0.05 % ID/g | Radioactivity distribution Heart [2, 4]: 0.74 ± 0.09 % ID/g | Radioactivity distribution Kidney [2, 4]: 1.79 ± 0.11 % ID/g | Radioactivity distribution Large intestine [2, 4]: 0.12 ± 0.01 % ID/g | Radioactivity distribution Liver [2, 4]: 3.03 ± 0.36 % ID/g | Radioactivity distribution Lung [2, 4]: 1.11 ± 0.11 % ID/g | Radioactivity distribution Muscle (lower limbs) [2, 4]: 0.15 ± 0.00 % ID/g | Radioactivity distribution Remaining whole body [2, 4]: 0.29 ± 0.05 % ID/g | Radioactivity distribution Small intestine [2, 4]: 1.74 ± 0.42 % ID/g | Radioactivity distribution Spleen [2, 4]: 3.79 ± 1.44 % ID/g | Radioactivity distribution Stomach [2, 4]: 0.53 ± 0.16 % ID/g | Radioactivity distribution Testis [2, 4]: 0.07 ± 0.01 % ID/g | Radioactivity distribution Whole brain [2, 4]: 0.03 ± 0.01 % ID/g | Adrenal gland/blood ratio of radioactivity accumulation [2, 5]: 172.72 ± 25.00 | Adrenal gland/fat ratio of radioactivity accumulation [2, 5]: 103.83 ± 16.66 | Adrenal gland/kidney ratio of radioactivity accumulation [2, 5]: 5.90 ± 0.47 | Adrenal gland/liver ratio of radioactivity accumulation [2, 5]: 10.03 ± 1.46 | Adrenal gland/muscle ratio of radioactivity accumulation [2, 5]: 65.62 ± 16.66 | Adrenal gland/small intestine ratio of radioactivity accumulation [2, 5]: 3.39 ± 0.42 | Radioactivity distribution Adrenal gland [2, 5]: 10.75 ± 1.11 % ID/g | Radioactivity distribution Bladder (including urine) [2, 5]: 2.70 ± 1.51 % ID/g | Radioactivity distribution Blood [2, 5]: 0.06 ± 0.01 % ID/g | Radioactivity distribution Fat [2, 5]: 0.10 ± 0.01 % ID/g | Radioactivity distribution Femur [2, 5]: 1.17 ± 0.02 % ID/g | Radioactivity distribution Heart [2, 5]: 0.76 ± 0.16 % ID/g | Radioactivity distribution Kidney [2, 5]: 1.82 ± 0.08 % ID/g | Radioactivity distribution Large intestine [2, 5]: 0.11 ± 0.00 % ID/g | Radioactivity distribution Liver [2, 5]: 1.08 ± 0.13 % ID/g | Radioactivity distribution Lung [2, 5]: 1.14 ± 0.08 % ID/g | Radioactivity distribution Muscle (lower limbs) [2, 5]: 0.17 ± 0.03 % ID/g | Radioactivity distribution Remaining whole body [2, 5]: 0.30 ± 0.00 % ID/g | Radioactivity distribution Small intestine [2, 5]: 3.18 ± 0.18 % ID/g | Radioactivity distribution Spleen [2, 5]: 4.81 ± 0.73 % ID/g | Radioactivity distribution Stomach [2, 5]: 1.34 ± 0.66 % ID/g | Radioactivity distribution Testis [2, 5]: 0.11 ± 0.00 % ID/g | Radioactivity distribution Whole brain [2, 5]: 0.02 ± 0.00 % ID/g | Adrenal gland/blood ratio of radioactivity accumulation [2, 6]: 345.58 ± 116.00 | Adrenal gland/fat ratio of radioactivity accumulation [2, 6]: 158.96 ± 131.25 | Adrenal gland/kidney ratio of radioactivity accumulation [2, 6]: 10.46 ± 6.81 | Adrenal gland/liver ratio of radioactivity accumulation [2, 6]: 25.91 ± 10.25 | Adrenal gland/muscle ratio of radioactivity accumulation [2, 6]: 113.23 ± 76.79 | Adrenal gland/small intestine ratio of radioactivity accumulation [2, 6]: 3.39 ± 1.14 | Radioactivity distribution Adrenal gland [2, 6]: 15.22 ± 7.58 % ID/g | Radioactivity distribution Bladder (including urine) [2, 6]: 2.67 ± 0.43 % ID/g | Radioactivity distribution Blood [2, 6]: 0.04 ± 0.01 % ID/g | Radioactivity distribution Fat [2, 6]: 0.11 ± 0.04 % ID/g | Radioactivity distribution Femur [2, 6]: 1.28 ± 0.07 % ID/g | Radioactivity distribution Heart [2, 6]: 0.72 ± 0.09 % ID/g | Radioactivity distribution Kidney [2, 6]: 1.55 ± 0.21 % ID/g | Radioactivity distribution Large intestine [2, 6]: 0.16 ± 0.07 % ID/g | Radioactivity distribution Liver [2, 6]: 0.57 ± 0.06 % ID/g | Radioactivity distribution Lung [2, 6]: 0.94 ± 0.08 % ID/g | Radioactivity distribution Muscle (lower limbs) [2, 6]: 0.15 ± 0.03 % ID/g | Radioactivity distribution Remaining whole body [2, 6]: 0.28 ± 0.01 % ID/g | Radioactivity distribution Small intestine [2, 6]: 4.35 ± 0.69 % ID/g | Radioactivity distribution Spleen [2, 6]: 4.13 ± 1.21 % ID/g | Radioactivity distribution Stomach [2, 6]: 1.15 ± 0.26 % ID/g | Radioactivity distribution Testis [2, 6]: 0.09 ± 0.01 % ID/g | Radioactivity distribution Whole brain [2, 6]: 0.02 ± 0.00 % ID/g | Radiochemical purity after incubation in human plasma [3]: 88%

[123I]c1ccc2nc(-c3cncc(Cn4ccnn4)c3)n(C3CC3)c2c1 [[^123I] 603, 1-Cyclopropyl-2-[3-(1H-1,2,3-triazol-1-ylmethyl)pyridin-5-yl]-6-[^123I]iodo-1H-benzimidazole]
B2/B1 accumulation ratio [1]: 1.01 | B2 (PSL value, aldosterone-producing adenoma) [1]: 2043 | B1 (PSL value, normal adrenal cortex) [1]: 2027 | Adrenal gland/blood ratio of radioactivity accumulation [2, 7]: 52.24 ± 16.82 | Adrenal gland/fat ratio of radioactivity accumulation [2, 7]: 49.21 ± 30.24 | Adrenal gland/kidney ratio of radioactivity accumulation [2, 7]: 3.95 ± 1.50 | Adrenal gland/liver ratio of radioactivity accumulation [2, 7]: 4.37 ± 1.12 | Adrenal gland/muscle ratio of radioactivity accumulation [2, 7]: 34.85 ± 6.45 | Adrenal gland/small intestine ratio of radioactivity accumulation [2, 7]: 3.44 ± 1.04 | Radioactivity distribution Adrenal gland [2, 7]: 10.24 ± 4.48 % ID/g | Radioactivity distribution Bladder (including urine) [2, 7]: 0.43 ± 0.13 % ID/g | Radioactivity distribution Blood [2, 7]: 0.13 ± 0.01 % ID/g | Radioactivity distribution Fat [2, 7]: 0.11 ± 0.01 % ID/g | Radioactivity distribution Femur [2, 7]: 0.85 ± 0.40 % ID/g | Radioactivity distribution Heart [2, 7]: 0.65 ± 0.09 % ID/g | Radioactivity distribution Kidney [2, 7]: 2.09 ± 0.09 % ID/g | Radioactivity distribution Large intestine [2, 7]: 0.11 ± 0.01 % ID/g | Radioactivity distribution Liver [2, 7]: 4.09 ± 0.45 % ID/g | Radioactivity distribution Lung [2, 7]: 0.98 ± 0.16 % ID/g | Radioactivity distribution Muscle (lower limbs) [2, 7]: 0.18 ± 0.05 % ID/g | Radioactivity distribution Remaining whole body [2, 7]: 0.24 ± 0.01 % ID/g | Radioactivity distribution Small intestine [2, 7]: 1.29 ± 0.12 % ID/g | Radioactivity distribution Spleen [2, 7]: 5.59 ± 1.78 % ID/g | Radioactivity distribution Stomach [2, 7]: 0.66 ± 0.34 % ID/g | Radioactivity distribution Testis [2, 7]: 0.04 ± 0.01 % ID/g | Radioactivity distribution Whole brain [2, 7]: 0.01 ± 0.00 % ID/g | Adrenal gland/blood ratio of radioactivity accumulation [2, 8]: 199.21 ± 91.92 | Adrenal gland/fat ratio of radioactivity accumulation [2, 8]: 106.15 ± 23.20 | Adrenal gland/kidney ratio of radioactivity accumulation [2, 8]: 12.16 ± 7.12 | Adrenal gland/liver ratio of radioactivity accumulation [2, 8]: 17.77 ± 9.08 | Adrenal gland/muscle ratio of radioactivity accumulation [2, 8]: 98.15 ± 67.95 | Adrenal gland/small intestine ratio of radioactivity accumulation [2, 8]: 3.25 ± 1.07 | Radioactivity distribution Adrenal gland [2, 8]: 15.46 ± 8.64 % ID/g | Radioactivity distribution Bladder (including urine) [2, 8]: 1.13 ± 0.19 % ID/g | Radioactivity distribution Blood [2, 8]: 0.10 ± 0.02 % ID/g | Radioactivity distribution Fat [2, 8]: 0.12 ± 0.03 % ID/g | Radioactivity distribution Femur [2, 8]: 0.83 ± 0.03 % ID/g | Radioactivity distribution Heart [2, 8]: 0.64 ± 0.04 % ID/g | Radioactivity distribution Kidney [2, 8]: 1.65 ± 0.27 % ID/g | Radioactivity distribution Large intestine [2, 8]: 0.14 ± 0.02 % ID/g | Radioactivity distribution Liver [2, 8]: 1.89 ± 0.21 % ID/g | Radioactivity distribution Lung [2, 8]: 0.97 ± 0.10 % ID/g | Radioactivity distribution Muscle (lower limbs) [2, 8]: 0.16 ± 0.02 % ID/g | Radioactivity distribution Remaining whole body [2, 8]: 0.27 ± 0.01 % ID/g | Radioactivity distribution Small intestine [2, 8]: 3.40 ± 0.80 % ID/g | Radioactivity distribution Spleen [2, 8]: 6.71 ± 0.48 % ID/g | Radioactivity distribution Stomach [2, 8]: 0.61 ± 0.14 % ID/g | Radioactivity distribution Testis [2, 8]: 0.05 ± 0.01 % ID/g | Radioactivity distribution Whole brain [2, 8]: 0.01 ± 0.00 % ID/g | Adrenal gland/blood ratio of radioactivity accumulation [2, 9]: 235.46 ± 58.57 | Adrenal gland/fat ratio of radioactivity accumulation [2, 9]: 108.45 ± 23.85 | Adrenal gland/kidney ratio of radioactivity accumulation [2, 9]: 13.73 ± 3.51 | Adrenal gland/liver ratio of radioactivity accumulation [2, 9]: 20.07 ± 5.16 | Adrenal gland/muscle ratio of radioactivity accumulation [2, 9]: 124.82 ± 30.33 | Adrenal gland/small intestine ratio of radioactivity accumulation [2, 9]: 2.42 ± 0.71 | Radioactivity distribution Adrenal gland [2, 9]: 18.65 ± 1.67 % ID/g | Radioactivity distribution Bladder (including urine) [2, 9]: 3.04 ± 1.32 % ID/g | Radioactivity distribution Blood [2, 9]: 0.06 ± 0.01 % ID/g | Radioactivity distribution Fat [2, 9]: 0.12 ± 0.04 % ID/g | Radioactivity distribution Femur [2, 9]: 0.90 ± 0.10 % ID/g | Radioactivity distribution Heart [2, 9]: 0.56 ± 0.01 % ID/g | Radioactivity distribution Kidney [2, 9]: 1.23 ± 0.01 % ID/g | Radioactivity distribution Large intestine [2, 9]: 0.55 ± 0.52 % ID/g | Radioactivity distribution Liver [2, 9]: 0.96 ± 0.10 % ID/g | Radioactivity distribution Lung [2, 9]: 0.78 ± 0.03 % ID/g | Radioactivity distribution Muscle (lower limbs) [2, 9]: 0.14 ± 0.01 % ID/g | Radioactivity distribution Remaining whole body [2, 9]: 0.28 ± 0.04 % ID/g | Radioactivity distribution Small intestine [2, 9]: 3.98 ± 1.32 % ID/g | Radioactivity distribution Spleen [2, 9]: 5.62 ± 1.11 % ID/g | Radioactivity distribution Stomach [2, 9]: 0.89 ± 0.21 % ID/g | Radioactivity distribution Testis [2, 9]: 0.05 ± 0.01 % ID/g | Radioactivity distribution Whole brain [2, 9]: 0.01 ± 0.00 % ID/g | Radiochemical purity after incubation in human plasma [3]: 94%
